# Legend:
# [1] = target: T1, NACHT, LRR and PYD domains-containing protein 3 (Homo sapiens, UniProt Q96P20); test: Inhibition of NLRP3 in human PBMC cells assessed as reduction in IL-1beta production preincubated for 30 mins followed by LPS addition measured after 6 hrs; assay type: cell-based
# [2] = target: T1, NACHT, LRR and PYD domains-containing protein 3; test: Inhibition of NLRP3 in human PBMC cells assessed as reduction in TNF alpha level preincubated for 30 mins followed by LPS addition measured after 6 hrs; assay type: cell-based
# [3] = target: T2, NACHT, LRR and PYD domains-containing protein 3 (Mus musculus, UniProt Q8R4B8); test: Inhibition of NLRP3 in mouse J774A.1 cells assessed as reduction of IL-1beta production; assay type: cell-based, J774.A1
# [4] = target: T1, NACHT, LRR and PYD domains-containing protein 3; test: Inhibition of NLRP3 in human Whole blood cell assessed as reduction in IL-1beta production incubated for overnight in presence of ATP by ELISA; assay type: tissue-based
# THP-1 = test: Induction of pyroptosis in human THP-1 cells; assay type: functional, cell-based
# [5] = target: T1, NACHT, LRR and PYD domains-containing protein 3; test: Inhibition of NLRP3 in human THP-1 cells assessed as reduction in IL-1beta production measured after 3 hrs by AlphaLISA assay; assay type: cell-based
# [6] = target: T1, NACHT, LRR and PYD domains-containing protein 3; test: Inhibition of NLR3 in human Whole blood cell assessed as reduction in IL-1beta production preincubated for 0.5 hrs followed by LPS treatement for […] and further addition of ATP measured after 45 mins by ELISA assay; assay type: tissue-based
# [7] = target: T2, NACHT, LRR and PYD domains-containing protein 3; test: Inhibition of NLRP3 in LPS induced mouse BMDM cells assessed as reduction in IL-1beta production measured after 30 mins by ELISA assay; assay type: cell-based
# [8] = target: T2, NACHT, LRR and PYD domains-containing protein 3; test: Inhibition of NLRP3 in LPS induced mouse BV-2 cells assessed as reduction in IL-1beta production pretreated for 30 mins followed by nigericin addition measured after 2 hrs by ELISA assay; assay type: cell-based
# [9] = target: T1, NACHT, LRR and PYD domains-containing protein 3; test: Inhibition of NLRP3 in human PBMC cells assessed as reduction in Il-1beta production preincubated for 0.5 hrs followed by LPS treatment for […] and further addition of ATP measured after 45 mins; assay type: cell-based
# [10] = target: T1, NACHT, LRR and PYD domains-containing protein 3; test: Inhibition of NLRP3 in human PBMC cells assessed as reduction in TNFalpha level preincubated for 0.5 hrs followed by LPS treatment for […] and further addition of ATP measured after 45 mins; assay type: cell-based
# [11] = target: T1, NACHT, LRR and PYD domains-containing protein 3; test: Inhibition of NLRP3 in LPS induced human THP-1 cells assessed as reduction in IL-1beta production preincubated for 3 hrs followed by nigericin addition measured after 1 hrs by resazurin staining based assay; assay type: cell-based
# [12] = target: T1, NACHT, LRR and PYD domains-containing protein 3; test: Inhibition of NLRP3 (unknown origin) assessed as reduction of IL-1beta production
# [13] = Lipophilicity, logP of the compound; assay type: physicochemical; conditions: octanol/water
# [14] = target: T1, NACHT, LRR and PYD domains-containing protein 3; test: Inhibition of NLRP3 in human THP-1 cells assessed as reduction in IL-1beta production; assay type: cell-based
# [15] = Inhibition of NLRP3 in PBMC cells (unknown origin) assessed as reduction in IL-1beta production measured after 2 hrs by ELISA assay; assay type: cell-based
# [16] = target: T1, NACHT, LRR and PYD domains-containing protein 3; test: Inhibition of NLRP3 in human THP-1 cells assessed as reduction in IL-1beta production measured after 1 hrs by ELISA assay; assay type: cell-based
# [17] = target: T1, NACHT, LRR and PYD domains-containing protein 3; test: Inhibition of NLRP3 in human PBMC cells assessed as reduction in Il-1beta production at 0.5 uM relative to control; assay type: cell-based
# [18] = target: T1, NACHT, LRR and PYD domains-containing protein 3; test: Inhibition of NLRP3 in human THP-1 cells assessed as reduction in IL-1beta production measured after 3 hrs by resazurin staining based assay; assay type: cell-based
# [19] = target: T1, NACHT, LRR and PYD domains-containing protein 3; test: Inhibition of NLRP3 in human THP-1 cells assessed as reduction in IL-1beta production measured after 3 hrs; assay type: cell-based
# [20] = target: T1, NACHT, LRR and PYD domains-containing protein 3; test: Inhibition of NLRP3 in human THP-1 cells assessed as reduction in caspase 1 level; assay type: cell-based
# [21] = target: T1, NACHT, LRR and PYD domains-containing protein 3; test: Inhibition of NLRP3 in human THP-1 cells assessed as reduction in IL-1beta production by AlphaLISA assay; assay type: cell-based
# [22] = target: T1, NACHT, LRR and PYD domains-containing protein 3; test: Inhibition of NLRP3 in LPS induced human PBMC cells assessed as reduction in IL-1beta preincubated for 30 mins followed by ATP addition measured after 1 hrs HTRF assay; assay type: cell-based
# T1 sequence (Q96P20 whole entry, the tested form may be a part): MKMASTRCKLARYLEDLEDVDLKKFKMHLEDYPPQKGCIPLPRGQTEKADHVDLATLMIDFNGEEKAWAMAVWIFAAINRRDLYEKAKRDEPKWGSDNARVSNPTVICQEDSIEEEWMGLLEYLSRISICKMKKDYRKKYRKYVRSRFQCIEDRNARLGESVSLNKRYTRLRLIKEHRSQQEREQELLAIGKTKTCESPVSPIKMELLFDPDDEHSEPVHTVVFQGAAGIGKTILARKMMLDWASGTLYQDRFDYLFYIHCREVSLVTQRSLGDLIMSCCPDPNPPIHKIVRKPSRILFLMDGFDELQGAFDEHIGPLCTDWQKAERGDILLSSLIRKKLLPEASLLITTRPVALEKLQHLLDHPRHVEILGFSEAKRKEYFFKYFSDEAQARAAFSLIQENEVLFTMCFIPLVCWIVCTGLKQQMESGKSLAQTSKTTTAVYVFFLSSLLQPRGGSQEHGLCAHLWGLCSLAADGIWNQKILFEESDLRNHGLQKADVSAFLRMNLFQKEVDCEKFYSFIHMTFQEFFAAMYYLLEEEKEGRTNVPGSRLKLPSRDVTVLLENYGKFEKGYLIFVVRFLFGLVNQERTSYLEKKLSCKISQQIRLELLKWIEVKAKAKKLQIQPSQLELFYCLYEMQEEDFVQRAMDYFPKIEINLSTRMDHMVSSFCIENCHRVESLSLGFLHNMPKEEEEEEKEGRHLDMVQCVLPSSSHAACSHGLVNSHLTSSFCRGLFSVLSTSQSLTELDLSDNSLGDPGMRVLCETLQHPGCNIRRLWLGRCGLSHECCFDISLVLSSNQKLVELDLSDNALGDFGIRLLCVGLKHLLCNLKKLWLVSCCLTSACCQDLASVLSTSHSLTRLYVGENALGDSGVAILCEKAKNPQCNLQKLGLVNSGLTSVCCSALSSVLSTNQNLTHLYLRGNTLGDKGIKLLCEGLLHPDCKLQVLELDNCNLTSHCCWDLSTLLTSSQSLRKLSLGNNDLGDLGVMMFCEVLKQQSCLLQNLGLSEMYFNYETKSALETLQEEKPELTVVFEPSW
# T2 sequence (Q8R4B8 whole entry, the tested form may be a part): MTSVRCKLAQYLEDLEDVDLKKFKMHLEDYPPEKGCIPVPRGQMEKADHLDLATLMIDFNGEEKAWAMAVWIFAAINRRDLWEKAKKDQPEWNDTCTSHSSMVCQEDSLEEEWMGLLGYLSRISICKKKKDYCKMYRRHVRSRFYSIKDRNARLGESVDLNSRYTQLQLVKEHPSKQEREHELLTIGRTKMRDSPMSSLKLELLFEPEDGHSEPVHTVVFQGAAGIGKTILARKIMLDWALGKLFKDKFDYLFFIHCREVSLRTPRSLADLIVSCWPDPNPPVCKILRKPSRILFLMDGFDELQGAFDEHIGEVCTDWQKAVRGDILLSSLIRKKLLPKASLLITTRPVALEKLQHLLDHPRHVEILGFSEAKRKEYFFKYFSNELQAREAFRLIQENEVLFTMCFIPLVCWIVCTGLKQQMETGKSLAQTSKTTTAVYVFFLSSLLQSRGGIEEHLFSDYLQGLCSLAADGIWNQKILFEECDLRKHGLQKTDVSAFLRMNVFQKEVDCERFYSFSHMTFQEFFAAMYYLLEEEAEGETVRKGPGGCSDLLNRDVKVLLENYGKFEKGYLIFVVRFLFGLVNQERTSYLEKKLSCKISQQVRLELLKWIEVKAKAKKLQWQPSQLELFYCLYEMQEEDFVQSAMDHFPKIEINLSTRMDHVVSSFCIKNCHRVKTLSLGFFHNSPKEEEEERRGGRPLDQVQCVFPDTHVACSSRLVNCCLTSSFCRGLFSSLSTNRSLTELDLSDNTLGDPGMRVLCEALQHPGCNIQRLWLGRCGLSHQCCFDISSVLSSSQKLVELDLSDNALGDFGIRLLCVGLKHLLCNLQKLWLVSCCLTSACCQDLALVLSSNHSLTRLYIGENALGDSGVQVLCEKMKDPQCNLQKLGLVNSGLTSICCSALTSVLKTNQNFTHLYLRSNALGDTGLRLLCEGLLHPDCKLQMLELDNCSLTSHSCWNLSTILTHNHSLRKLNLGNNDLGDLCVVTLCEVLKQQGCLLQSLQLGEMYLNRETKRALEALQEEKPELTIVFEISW
smiles,measurement,setting,value
CC(C)c1nn(CC(=O)N[C@H]2C[C@](C)(O)C2)c(=O)c2ccc(Br)cc12,IC50,[1],< 0.025 µM
same,IC50,[2],> 10 µM
O=C(/C=C/S(=O)(=O)c1ccccc1Cl)NCCc1ccccc1,IC50,[3],0.91 µM
O=C(Nc1c(C2CC2)ccc2c1CCC2)NS(=O)(=O)c1cc2c(o1)C1CCN(CC1)C2,IC50,[4],< 1 µM
CN1CCC[C@@H](Nc2nnc(-c3sccc3O)c3c2ncn3C)C1,EC50,THP-1,> 1 µM
COC(C)(C)Cn1ccc(S(=O)(=O)c2nnc(Nc3c4c(cc5c3CCC5)CCC4)[nH]2)n1,IC50,[5],< 0.5 µM
CCNc1cc2c(=O)n(CC(=O)Nc3ccc4nncn4c3)nc(C(C)C)n2n1,IC50,[1],0.024 µM
same,IC50,[2],7.04 µM
O=C(Nc1c2c(cc3c1CCC3)CCC2)NS(=O)(=O)c1cc2c(o1)C1CCN(CC1)C2,IC50,[6],< 1 µM
CCC(CC)CN1C(=O)/C(=C/c2ccccc2S(C)(=O)=O)SC1=S,IC50,[7],1.4 µM
COC(=O)C12CC(NC(=O)Cn3nc(C(C)C)c(OCC(C)C)cc3=O)(C1)C2,EC50,[1],0.01 µM
CC(C)(O)c1coc(S(=O)(=O)NC(=O)Nc2c3c(cc4c2CCC4)CCC3)c1,IC50,[8],3.93 µM
CC(C)c1nn(CC(=O)Nc2ccncn2)c(=O)c2cccn12,IC50,[9],> 10 µM
same,IC50,[10],> 10 µM
O=S1(=O)c2nnc([nH]2)Nc2c(ccc3c2CCC3)-c2ccnc(c2)OCCCN2CCC3(CC1C3)C2,IC50,[11],≤ 0.1 µM
COc1ccc(Cl)cc1C(=O)NCCc1ccc(S(=O)(=O)NO)cc1,IC50,[12],8.45 µM
same,logP,[13],0.19
Cc1cc2c(c(NC(=O)N[S+](=N)([O-])c3ccccc3)c1-c1ccnc(OC3CCN(C)CC3)c1)CCC2 (stereo not given),IC50,[14],< 0.25 µM
Cc1cc2c(c(NC(=O)NS(=O)(=O)c3cc(C(C)(C)O)co3)c1-c1ccnc(OC3CCN(C)CC3)c1)CCC2,IC50,[14],≤ 0.25 µM
Cn1cc(N(C[C@@H]2CCCO2)CS(=O)(=O)NC(=O)Nc2c3c(cc4c2CC4)CCC3)cn1,IC50,[15],< 0.1 µM
CC(C)c1nn(CC(=O)Nc2ncncc2F)c(=O)c2cc(C(F)(F)F)ccc12,IC50,[16],> 50 µM
CC(C)c1nn(CC(=O)Nc2ccc3nncn3c2)c(=O)cc1Oc1ccccc1,EC50,[1],> 15 µM
C=C1C(=O)[C@@]23C(CC[C@@H]1[C@H]2OC(=O)/C=C/c1ccc(N2CCOCC2)cc1)[C@@]12CO[C@]3(O)[C@@H](O)[C@@H]1C(C)(C)CC[C@@H]2O (stereo not given in full),inhibition,[17],2.94%
CC(C)c1cc(F)cc(C(C)C)c1NC(=O)N=[S+](N)([O-])c1ccccc1-c1ccccc1 (stereo not given),IC50,[14],> 30 µM
O=C(Nc1c2c(cc3c1CCO3)CCC2)NS(=O)(=O)c1ccn(C2CC2)n1,IC50,[18],≤ 0.25 µM
CCc1oc(C(C)C)cc1NC(=O)NS(=O)(=O)C(c1cnn(C)c1)C1CCCN(C)C1 (stereo not given),IC50,[19],< 0.1 µM
C=CCN1C(=O)/C(=C2/C(=O)Nc3ccccc32)SC1=S,IC50,[20],0.5 µM
CCc1c(-c2cccc(F)c2)c(C(C)C)nn(CC(=O)Nc2ncncc2F)c1=O,IC50,[16],35.3 µM
O=C1Nc2c(ccc3c2CCC3)-c2ccnc(c2)OCCn2cc(F)c(n2)S(=O)(=O)N1,IC50,[21],< 0.1 µM
CC(C)OC(=O)c1nc(Nc2c3c(cc4c2CCC4)CCC3)cs1,IC50,[22],< 1 µM
CC(C)c1nn(CC(=O)Nc2ccc3nncn3n2)c(=O)cc1N1CC2CC2C1 (stereo not given),EC50,[1],0.09 µM
Cn1ncc2ccc(S(=O)(=O)NC(=O)Nc3c4c(cc5c3CCC5)CCC4)cc21,IC50,[11],< 1 µM
CC(C)c1cc(F)cc(C(C)C)c1NC(=O)N=[S+](N)([O-])c1ccc2ccccc2c1 (stereo not given),IC50,[14],> 30 µM
CC(C)c1nc2c(C(C)C)nn(CC(=O)Nc3ccc4nncn4c3)c(=O)c2s1,IC50,[2],11.5 µM
Cc1ccc(S(=O)(=O)/C=C/C#N)cc1,IC50,[3],1.54 µM

# — ChEMBL document CHEMBL5390258, “Recent Progress and Prospects of Small Molecules for NLRP3 Inflammasome Inhibition” (J Med Chem, 2023)
